≈ marks a conversion by molar mass, not a printed value. Entries after “also recorded” stand apart in the source; their conditions may differ.
Legend:
[1] = background; in words; cited from earlier work
HBV [2] = settings: background; in words; cited from earlier work
3TC resistant HBV (DM2) = experiment: Activity against 3TC resistant HBV (DM2, L526MM550V) in transfected HepG2 cells; format: cell-based, Hepatitis B virus; settings: in words; for effect on 3TC resistant HBV: DM2, HepG2, 9 days
WT10 = experiment: Activity against wild-type HBV (WT10) in transfected HepG2 cells; format: cell-based, Hepatitis B virus; settings: in words
HBsAg in HepA2 cells = experiment: Suppression of HBsAg secretion in HepA2 cells, serum-free, 2 days; format: cell-based; settings: Homo sapiens, HepA2, 48 h, read-out: EC50 HepA2 (50% reduction of HBsAg secretion)
Text: (§1) Biological testing results of Helioxanthin and
(§2) its derivatives for suppression of HBsAg
(§3) in HepA2 and Hep3B cells in serum-free condition for 2 days
The symbol, "*" denotes HepA2, HBV DNA stable transfected HBV dimer DNA.
(§4) The symbol, "**" denotes EC50, the concentration of tested compounds
(§5) which exerted 50% reduction of HBsAg secretion in human hepatoma cells.

Yellow Fever virus = experiment: microbe, parasite or virus in culture; format: cell-based; settings: for EC50: Yellow fever virus, BHK, 144 h, read-out: Anti-viral activity (ED50) YFV, plaque reduction, BHK cells, 6 days; for activity against the Yellow fever virus: in words
HBV [3] = experiment: microbe, parasite or virus in culture; format: cell-based, Hepatitis B virus; settings: for EC50: Hepatitis B virus, 144 h; for inhibition of HBV replication / DNA level: in words
HBsAg in Hep3B cells = experiment: Suppression of HBsAg secretion in Hep3B cells, serum-free, 2 days; format: cell-based; settings: Homo sapiens, 48 h, read-out: EC50 Hep3B (50% reduction of HBsAg secretion)
Text: as §1, §2, §3, §4, §5

[4] = Cytotoxicity, CEM cell growth; format: cell-based; settings: human, cem cells; 3 days; read-out: Cytotoxicity (IC50) CEM cell
Procedure: (§6) To determine the cellular toxicity of the present compounds, the T-lymphoblastoic cell line (CEM) and the HEP-G2 cell line (parent cell line from which 2.2.15 cell line is produced) were used. Cells were subjected to varying concentrations of the drug(s) and cell numbers were determined 3 days post treatment by the method described by Chen, C-H and Cheng, Y-C, J. Biol. Chem., 264, 11934 (1989). Concentrations of the drug which would result in inhibition of cell growth were determined from the plot generated by representing cell numbers corresponding to the individual drug concentrations.

[5] = Solubility: saturated solution in PBS at room temperature; format: physicochemical; settings: aqueous buffer
Text: 3. The symbol "*" denotes the concentration of the saturated solution in
PBS at room temperature.

[6] = Cytotoxicity, HepG2 cell growth; format: cell-based; settings: human, hepg2 cells; 3 days; read-out: Cytotoxicity (IC50) HepG2 cell
Procedure: as §6

HBsAg = experiment: microbe, parasite or virus in culture; format: cell-based, Hepatitis B virus; settings: for EC50: Hepatitis B virus, 144 h, read-out: Anti-viral activity (ED50) HbsAg; for HbsAg expression inhibition: in words
HBV RNA = HBV RNA level (Northern analysis); format: cell-based, Hepatitis B virus; settings: in words
Procedure: The biological activity of the present compounds was assessed as described by Doong, S-L, et al., Proc. Natl. Acad. Sci. U.S.A 88, 8495-8499 (1991). The human hepatoma cell line carrying HBV (cell line designated 2.2.15) provided by Dr. G. Aces was used in the study. Price, et al., Proc. Natl. Acad. Sci. U.S.A. 86, 8541 (1989). Briefly, six day-old cultures were treated with varying concentrations of the drug in the culture medium (Minimum essential medium with Earl's salts and 10% fetal bovine serum). The drug was left in the culture medium for a period of 3 days after which period the medium was aspirated and fresh medium containing the same concentration(s) of the drug was added. […] Inhibition of the viral replication was determined by the comparison of the viral DNA from drug-treated versus control cultures not treated with the drug. In addition, supernatant obtained from the polyethylene glycol precipitation of the cell culture medium (above) was measured for the presence of two HBV antigens (HBsAg and HBeAg) using enzyme immunoassay kits from Abbott Laboratories, Inc. [HBs (rDNA) EIA and HBe (rDNA)EIA], pursuant to standard practice (FIG. 3A). RNA levels were determed using Northern analysis with cellular albumin RNA being measured as a load control to standardize the quality of the HBV RNA measurement (FIG. 3B).

Nc1ccn([C@H]2CC[C@@H](CO)O2)c(=O)n1 [2',3'-dideoxycytidine (ddC), 2',3'-dideoxycytidine]
toxicity [1]: high toxicity on the central and peripheral nervous system

Nc1ccn([C@@H]2CS[C@H](CO)O2)c(=O)n1 [Compound 3TC]
effect on HBV infection (HBV [2]): recurrence of HBV after a period of treatment
sensitivity of HBV DNA production of DM2 to 3TC (3TC resistant HBV (DM2); DM2): resistant
sensitivity of HBV DNA production of WT10 to 3TC (WT10): sensitive

O=C1OCc2c1cc1ccc3c(c1c2-c1ccc2c(c1)OCO2)OCO3 [Compound 145, 7,8-methylenedioxy-1-(3',4'-methylenedioxyphenyl)-2-hydroxymethylnaphthalene-3-carboxylic acid lactone]
EC50 (HBsAg in HepA2 cells): 0.25 µM
EC50 (Yellow Fever virus): 9.5 µM
activity against the Yellow fever virus (Yellow Fever virus): demonstrated activity against the Yellow fever virus
EC50 (HBV [3]): 1 µM
inhibition of HBV replication / DNA level (HBV [3]): selectively inhibited HBV replication; also recorded: decreased the RNA and DNA level; also recorded: the most active compound in the series tested; also recorded: inhibit HBV replication in cell culture
inhibition of HBV replication / DNA level (HBV [3]; listed as helioxanthin): selectively inhibited HBV replication
EC50 (HBsAg in Hep3B cells): 0.025 µM
effect on 3TC resistant HBV (3TC resistant HBV (DM2)): excellent anti-HBV activity even in 3TC (L(-)SddC) resistant HBV
effect on 3TC resistant HBV (3TC resistant HBV (DM2); listed as helioxanthin): stronger inhibition of viral replication of strains of HBV that have become resistant to 3TC
CC50 at 72 h [4]: 22 µM
solubility [5]: 24.7 µM (≈ 8.6 µg/mL)
CC50 at 72 h [6]: 26 µM
EC50 (HBsAg): 4 µM
HbsAg expression inhibition (HBsAg): inhibit HBV replication and HbsAg expression
HBV RNA level (HBV RNA): decreased the RNA and DNA level; also recorded: decrease the RNA level of HBV
HBV RNA level (HBV RNA; listed as helioxanthin): decreased the RNA level

Nc1nc2c(ncn2CCC(CO)CO)c(=O)[nH]1 [PCV]
effect on HBV infection (HBV [2]): recurrence of HBV after a period of treatment

O=C1OC(=O)c2c1cc1cc3c(cc1c2-c1cc2c(cc1Br)OCO2)OCO3 [ZHU-IX-120-3, 6,7-methylenedioxy-1-(2'-bromo-4',5'-methylenedioxyphenyl)napthalene-2,3-dicarboxylic acid anhydride]
EC50 (Yellow Fever virus): > 10 µM
EC50 (HBV [3]): > 10 µM
CC50 at 72 h [4]: > 30 µM
solubility [5]: 11.8 µM (≈ 5.21 µg/mL)
CC50 at 72 h [6]: 11 µM
EC50 (HBsAg): > 10 µM

Cc1c(CO)cc2ccc3c(c2c1-c1ccc2c(c1)OCO2)OCO3 [ZHU-IX-122-1, 3-methyl-5,6-methylenedioxy-4-(3',4'-methylenedioxyphenyl)-2-hydroxymethylnapthalene]
EC50 (Yellow Fever virus): > 10 µM
EC50 (HBV [3]): 5 µM
inhibition of HBV replication / DNA level (HBV [3]): inhibit HBV replication
CC50 at 72 h [4]: > 30 µM
solubility [5]: 52.9 µM (≈ 17.8 µg/mL)
CC50 at 72 h [6]: > 30 µM
EC50 (HBsAg): 10 µM
HbsAg expression inhibition (HBsAg): inhibit HBV replication and HbsAg expression

OCc1cc2ccc3c(c2c(-c2ccc4c(c2)OCO4)c1CO)OCO3 [ZHU-IX-124-2, 2,3-dihydroxymethyl-5,6-methylenedioxy-4-(3',4'-methylenedioxyphenyl)napthalene]
EC50 (Yellow Fever virus): > 10 µM
EC50 (HBV [3]): 10 µM
CC50 at 72 h [4]: > 30 µM
solubility [5]: 127 µM (≈ 44.8 µg/mL)
CC50 at 72 h [6]: 16 µM
EC50 (HBsAg): 10 µM

OCc1cc2c(Br)cc3c(c2c(-c2ccc4c(c2)OCO4)c1CO)OCO3 [ZHU-IX-135-1, 2,3-dihydroxymethyl-5-bromo-7,8-methylenedioxy-1-(3', 4'-methylenedioxyphenyl)napthalene]
EC50 (Yellow Fever virus): 14 µM
EC50 (HBV [3]): 3 µM
inhibition of HBV replication / DNA level (HBV [3]): inhibit HBV replication
CC50 at 72 h [4]: > 30 µM
solubility [5]: 24.8 µM (≈ 10.7 µg/mL)
CC50 at 72 h [6]: 12 µM
EC50 (HBsAg): 8.5 µM
HbsAg expression inhibition (HBsAg): inhibit HBV replication and HbsAg expression

O=C1OCc2cc3ccc4c(c3c(-c3ccc5c(c3)OCO5)c21)OCO4 [ZHU-IX-139-2, 7,8-methylendioxy-1-(3',4'-methylenedioxyphenyl)-3-hydroxymethylnapthalene-2-carboxylic acid lactone]
EC50 (Yellow Fever virus): 16 µM
EC50 (HBV [3]): > 10 µM
CC50 at 72 h [4]: 18 µM
solubility [5]: 21 µM (≈ 7.31 µg/mL)
CC50 at 72 h [6]: 12 µM
EC50 (HBsAg): 10 µM

O=C1OCc2c1cc1c(Br)cc3c(c1c2-c1cc2c(cc1Br)OCO2)OCO3 [ZHU-IX-143, 8,2'-dibromo-5,6-methylenedioxy-4-(4',5'-methylenedioxyphenyl)-3-hydroxymethylnapthalene-2-carboxylic acid lactone]
EC50 (Yellow Fever virus): > 10 µM
EC50 (HBV [3]): > 10 µM
CC50 at 72 h [4]: > 30 µM
solubility [5]: 11.9 µM (≈ 6.02 µg/mL)
CC50 at 72 h [6]: 20 µM
EC50 (HBsAg): > 10 µM

O=C(O)c1cc2ccc3c(c2c(-c2ccc4c(c2)OCO4)c1CO)OCO3 [ZHU-IX-157, sodium 5,6-methylenedioxy-4-(3',4'-methylenedioxyphenyl)-3-hydroxymethylnapthalene-2-carbonate]
EC50 (Yellow Fever virus): 8 µM
activity against the Yellow fever virus (Yellow Fever virus): demonstrated activity against the Yellow fever virus
EC50 (HBV [3]): 2.5 µM
CC50 at 72 h [4]: > 30 µM
solubility [5]: 255 µM
CC50 at 72 h [6]: 26 µM
EC50 (HBsAg): 10 µM

Nc1ncnc2c1ncn2[C@@H]1O[C@H](COP(=O)(O)O)[C@@H](O)[C@@H]1O [ara-AMP]
effect on HBV infection (HBV [2]): transiently suppress HBV infection
toxicity [1]: extremely toxic

Reference: US6306899A (priority 1999, dated 2001)
